In brackets after ≈: the same amount, converted by molar mass.
Experiments:
[1] = tested on: Mycobacterium tuberculosis; experiment: Antitubercular activity against Mycobacterium tuberculosis H37Rv assessed as inhibition of bacterial growth incubated for […] by REMA assay; assay type: functional
[2] = target: T1, Thioredoxin reductase (Mycobacterium tuberculosis) (UniProt P9WHH1); experiment: Inhibition of Mycobacterium tuberculosis Thioredoxin reductase assessed as inhibition
T1 sequence (whole entry): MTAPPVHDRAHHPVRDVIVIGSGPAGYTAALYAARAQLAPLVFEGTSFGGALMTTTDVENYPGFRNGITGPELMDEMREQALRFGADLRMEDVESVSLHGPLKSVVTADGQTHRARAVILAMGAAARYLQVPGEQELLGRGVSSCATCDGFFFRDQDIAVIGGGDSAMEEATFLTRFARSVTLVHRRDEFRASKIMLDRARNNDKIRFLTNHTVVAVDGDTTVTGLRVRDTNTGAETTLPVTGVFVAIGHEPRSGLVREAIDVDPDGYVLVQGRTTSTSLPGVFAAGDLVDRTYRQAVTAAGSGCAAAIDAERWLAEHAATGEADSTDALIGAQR

[3] = tested on: Mycobacterium tuberculosis; experiment: Antitubercular activity against Mycobacterium tuberculosis assessed as bacterial growth inhibition by CLSI based broth dilution method; assay type: functional
[4] = tested on: Mycobacterium tuberculosis; experiment: Antitubercular activity against Mycobacterium tuberculosis H37Rv assessed as inhibition of bacterial growth incubated for 5 days by turbidity-based growth inhibition assay; assay type: functional; conditions: 120 h, time 5 day
[5] = tested on: Mycobacterium tuberculosis; experiment: Antitubercular activity against Mycobacterium tuberculosis H37Rv assessed as inhibition of bacterial growth incubated for 7 days by REMA assay; assay type: functional; conditions: 168 h, time 7 day
[6] = tested on: Mycobacterium tuberculosis; experiment: Antitubercular activity against Mycobacterium tuberculosis H37Rv assessed as inhibition of bacterial growth; assay type: functional
[7] = tested on: Mycobacterium tuberculosis; experiment: Antitubercular activity against Mycobacterium tuberculosis H37Ra assessed as inhibition of bacterial growth incubated for 28 days by microbroth dilution method; assay type: functional; conditions: 672 h, time 28 day
[8] = tested on: Mycobacterium tuberculosis; experiment: Antitubercular activity against Mycobacterium tuberculosis assessed as bacterial growth inhibition; assay type: functional
[9] = target: T2, Mycosin-1 (Mycobacterium tuberculosis (strain ATCC 25618 / H37Rv)) (UniProt O05461); experiment: Inhibition of Mycobacterium tuberculosis MycP1 assessed as inhibition rate at 150 uM relative to control
T2 sequence (whole entry): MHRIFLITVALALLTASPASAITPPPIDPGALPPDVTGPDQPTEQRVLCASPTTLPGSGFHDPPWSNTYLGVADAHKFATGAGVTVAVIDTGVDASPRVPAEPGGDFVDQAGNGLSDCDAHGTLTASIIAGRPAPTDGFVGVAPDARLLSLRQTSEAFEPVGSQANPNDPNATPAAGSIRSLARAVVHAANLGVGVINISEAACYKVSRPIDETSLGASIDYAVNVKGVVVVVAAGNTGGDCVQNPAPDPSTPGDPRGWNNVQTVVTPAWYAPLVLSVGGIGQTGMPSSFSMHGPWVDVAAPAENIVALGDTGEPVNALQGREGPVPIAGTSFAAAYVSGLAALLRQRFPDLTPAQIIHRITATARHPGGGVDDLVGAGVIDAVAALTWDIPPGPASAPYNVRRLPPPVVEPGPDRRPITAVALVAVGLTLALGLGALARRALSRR

[10] = tested on: Mycobacterium tuberculosis; experiment: Antitubercular activity against Mycobacterium tuberculosis H37Rv infected in ip dosed BALB/c mouse assessed as inhibition of bacterial growth; assay type: functional
[11] = tested on: Mycobacterium tuberculosis; experiment: Antitubercular activity against Mycobacterium tuberculosis H37Rv assessed as inhibition of bacterial growth incubated for 5 days by REMA assay; assay type: functional; conditions: 120 h, time 5 day
[12] = tested on: Mycobacterium tuberculosis; experiment: Antitubercular activity against Mycobacterium tuberculosis H37Rv assessed as inhibition of bacterial growth incubated for 2 days by resazurin-based assay; assay type: functional; conditions: 48 h, time 2 day
[13] = tested on: Mycobacterium tuberculosis; experiment: Antitubercular activity against Mycobacterium tuberculosis H37Rv assessed as inhibition of bacterial growth by broth microdilution method; assay type: functional
[14] = tested on: Mycobacterium tuberculosis; experiment: Antibacterial activity against Mycobacterium tuberculosis H37Rv assessed as fold increase in sensitivity in presence of copper by REMA assay; assay type: functional
[15] = tested on: Mycobacterium tuberculosis; experiment: Antitubercular activity against Mycobacterium tuberculosis H37Rv assessed as inhibition of bacterial growth incubated for 24 hrs by checkerboard assay; assay type: functional
[16] = tested on: Mycobacterium tuberculosis; experiment: Antitubercular activity against Mycobacterium tuberculosis H37Rv […] THP-1 cells incubated for 48 hrs by microplate Alamar blue assay; assay type: functional
[17] = tested on: Mycobacterium tuberculosis; experiment: Antitubercular activity against Mycobacterium tuberculosis H37Rv […] THP-1 cells in presence of rifampin; assay type: functional, organism-based
[18] = tested on: Mycobacterium tuberculosis; experiment: Antitubercular activity against Mycobacterium tuberculosis H37Rv […] THP-1 cells in presence of isoniazid; assay type: functional, organism-based
[19] = tested on: Mycobacterium tuberculosis; experiment: Antitubercular activity against Mycobacterium tuberculosis H37Rv […] THP-1 cells in presence of pyrazinamide; assay type: functional, organism-based
[20] = tested on: Mycobacterium tuberculosis; experiment: Antitubercular activity against Mycobacterium tuberculosis H37Rv assessed as inhibition of bacterial growth by incubated for 7 days by resazurin dye based broth microdilution method; assay type: functional; conditions: 168 h, time 7 day

CCCCCC/C=C/C=C/CCCCCCCC(=O)O
MIC [1]: 200 µg/mL (≈ 713 µM)
MIC [2]: < 20 µM

CSC1=C(C(=O)[O-])N2C(=O)[C@H]([C@@H](C)O)[C@H]2[C@H]1C.[Na+]
MIC90 [3]: 0.25 µg/mL

CCCOC(=O)CSC1=C(C(=O)O)N2C(=O)[C@H]([C@@H](C)O)[C@H]2[C@H]1C
MIC90 [3]: 1 µg/mL (≈ 2.91 µM)

O=C(N[C@@H](Cc1ccccn1)C(=O)N[C@@H](CCc1ccccc1)B(O)O)c1cnccn1
MIC50 [4]: 2.5 µM (≈ 1.08 µg/mL)

CC(C)(C)c1ccc(-c2nn(-c3ccccc3)cc2Cn2ccnc2)cc1
MIC [5]: 1.56 µg/mL (≈ 4.38 µM)

CC(C)Cc1ccc(-c2nn(-c3ccccc3)cc2Cn2ccnc2)cc1
MIC [5]: 1.56 µg/mL (≈ 4.38 µM)

CC(C)CC(N)C(=O)NCC(=O)NC[C@H](C)B1OC2CC3CC(C3(C)C)[C@@]2(C)O1.Cl (some centres not stated)
MIC [6]: ≤ 5 µg/mL

CC(C)C[C@H](N)C(=O)NCC(=O)NC[C@H](Cc1ccccc1)B(O)O
MIC [6]: ≤ 5 µg/mL

C[C@@H](CNC(=O)CNC(=O)C(N)CC(=O)O)B1OC2CC3CC(C3(C)C)[C@@]2(C)O1.Cl (some centres not stated)
MIC [6]: ≤ 5 µg/mL

Nc1nc(N)c(-c2ccc(C(=O)Nc3cccc(OC(F)(F)F)c3)cc2)c(OCc2cncs2)n1
MIC [7]: 6.25 µg/mL (≈ 12.4 µM)

C[C@@H](O)[C@H]1C(=O)N2C(C(=O)[O-])=C(SCC(=O)OC3CCCCC3)[C@H](C)[C@H]12.[Na+]
MIC90 [3]: 1 µg/mL

C=CCNC(=S)NNC(=S)NCC=C
MIC [8]: 0.5 µg/mL (≈ 2.17 µM)

CC(C)C[C@@H](N)C(=O)NCC(=O)NC[C@H](Cc1ccccc1)B(O)O.Cl
MIC [6]: ≤ 5 µg/mL

C=C1C[C@@]23CCC4[C@H](C(=O)O)CCC[C@@]4(C)[C@@H]2CC[C@@H]1C3 (some centres not stated)
MIC [2]: 0.5 µg/mL

CCCCC/C=C\C=C\CCCCCCCCC(=O)O
MIC [2]: < 20 µg/mL

CCCCCC/C=C/C=C\CCCCCCCC(=O)O
MIC [2]: < 20 µg/mL

N=C(N)c1ccc(/N=N/Nc2ccc(C(=N)N)cc2)cc1
inhibition [9]: 58%

C[C@@H](O)[C@H]1C(=O)N2C(C(=O)O)=C(S[C@@H]3CN[C@H](CNS(N)(=O)=O)C3)[C@H](C)[C@H]12 (mixture of isomers) [DORIPENEM]
MIC90 [3]: 1 µg/mL

O[C@@H](c1cc(C(F)(F)F)nc2c(C(F)(F)F)cccc12)[C@H]1CCCCN1 [(S,R)-MEFLOQUINE]
MIC [5]: 5 µg/mL (≈ 13.2 µM)

C[C@H]1O[C@H](O[C@H]2[C@H](O)[C@@H](O)[C@@H](O[C@H]3[C@H](O)[C@@H](O)C(O)O[C@@H]3CO)O[C@@H]2CO)[C@H](O)[C@@H](O)[C@@H]1N[C@H]1C=C(CO)[C@@H](O)[C@H](O)[C@H]1O (some centres not stated) [ACARBOSE]
MIC [8]: 0.05 µg/mL (≈ 0.0774 µM)

CCCCC(CC)CNC(=N)NC(=N)NCCCCCCNC(=N)NC(=N)NCC(CC)CCCC.Cl.Cl (configuration not stated) [ALEXIDINE DIHYDROCHLORIDE]
MIC99 [10]: 0.05 µg/mL

C[C@@H]1CC[C@H]2[C@@H](C)C(=O)O[C@@H]3O[C@@]4(C)CC[C@@H]1[C@]32OO4 [ARTEMISININ]
MIC [11]: 75 µg/mL (≈ 266 µM)

COc1nc2ccc(Br)cc2cc1[C@@H](c1ccccc1)[C@@](O)(CCN(C)C)c1cccc2ccccc12 [BEDAQUILINE]
MIC [12]: 0.06 µg/mL (≈ 0.108 µM)

C[C@@H](O)[C@H]1C(=O)N2C(C(=O)[O-])=C(SC3Cn4cnc[n+]4C3)[C@H](C)[C@H]12 (some centres not stated) [BIAPENEM]
MIC90 [13]: 2.5 µg/mL (≈ 7.13 µM)

CC(C)C[C@H](NC(=O)[C@H](Cc1ccccc1)NC(=O)c1cnccn1)B(O)O [BORTEZOMIB]
MIC50 [4]: 4.3 µM (≈ 1.65 µg/mL)

O=c1c2ccccc2[se]n1-c1ccccc1 [EBSELEN]
MIC50 [6]: 12.5 µg/mL (≈ 45.6 µM)

CN(NC(=O)CC(=O)NN(C)C(=S)c1ccccc1)C(=S)c1ccccc1 [ELESCLOMOL]
fold change (FC) [14]: >65
MIC99 [15]: 4 µg/mL

NNC(=O)c1ccncc1 [ISONIAZID]
MIC [8]: 0.01 µg/mL (≈ 0.0729 µM)

CC/C=C\C/C=C\C/C=C\CCCCCCCC(=O)O [LINOLENIC ACID]
MIC [8]: > 320 µg/mL
MIC [1]: 200 µg/mL (≈ 718 µM)

O=C(Nc1cccc2c(=O)cc(-c3nnn[nH]3)oc12)c1ccc(OCCCCc2ccccc2)cc1 [PRANLUKAST]
MIC90 [16]: 5 µg/mL (≈ 10.4 µM)

CC[C@H](C)C(=O)O[C@H]1C[C@H](O)C=C2C=C[C@H](C)[C@H](CC[C@@H](O)C[C@@H](O)CC(=O)O)[C@H]21 [PRAVASTATIN]
EC50 [17]: 7.8 µM
EC50 [18]: 7.8 µM
EC50 [19]: 7.8 µM

NC(=O)c1cnccn1 [PYRAZINAMIDE]
MIC [8]: 0.01 µg/mL (≈ 0.0812 µM)

COc1ccc2nc3cc(Cl)ccc3c(Nc3cc(CN4CCCC4)c(O)c(CN4CCCC4)c3)c2n1 [PYRONARIDINE]
MIC [20]: 5 µg/mL (≈ 9.65 µM)

CO[C@H]1/C=C/O[C@@]2(C)Oc3c(C)c(O)c4c(O)c(c(/C=N/N5CCN(C)CC5)c(O)c4c3C2=O)NC(=O)/C(C)=C\C=C\[C@H](C)[C@H](O)[C@@H](C)[C@@H](O)[C@@H](C)[C@H](OC(C)=O)[C@@H]1C [RIFAMPIN]
MIC [8]: 0.01 µg/mL (≈ 0.0122 µM)

CCC(C)(C)C(=O)O[C@H]1C[C@@H](C)C=C2C=C[C@H](C)[C@H](CC[C@@H]3C[C@@H](O)CC(=O)O3)[C@H]21 [SIMVASTATIN]
MIC [6]: > 320 µM

C[C@@H](O)[C@H]1C(=O)N2C(C(=O)O)=C(SC3CN(C4=NCCS4)C3)[C@H](C)[C@H]12 [TEBIPENEM]
MIC90 [13]: 1.25 µg/mL (≈ 3.26 µM)

COc1ccc(CCN(C)CCCC(C#N)(c2ccc(OC)c(OC)c2)C(C)C)cc1OC (configuration not stated) [VERAPAMIL]
MIC [6]: 125 µg/mL

From ChEMBL document CHEMBL5233232, “Repurposed drug candidates for antituberculosis therapy” (Eur J Med Chem, 2020)
